{"source": "paper PMC7274485", "about": "“A symbiotic bacterium of shipworms produces a compound with broad spectrum anti-apicomplexan activity” (PLoS Pathogens, 2020)", "key": {"Plasmodium falciparum": {"tested_on": "Plasmodium falciparum", "assay": "P. falciparum-infected erythrocyte proliferation, SYBR green incorporation", "assay_type": "cell-based", "details": "infected erythrocytes, 72 hours; read-out: EC50 against P. falciparum", "from_the_text": "The maintenance of Plasmodium falciparum cultures and conducting of in vitro inhibitor response assays have been previously described."}, "poultry coccidiosis": {"tested_on": "poultry coccidiosis", "parameters": "method as in earlier work", "details": "cited from earlier work"}, "Gram positive bacteria": {"tested_on": "Gram positive bacteria", "details": "cited from earlier work"}, "Gram negative bacteria": {"tested_on": "Gram negative bacteria", "details": "cited from earlier work"}, "NLRP3 inflammasome": {"tested_on": "NLRP3 inflammasome", "parameters": "method as in PMID 30183250", "details": "through activity as a potassium ionophore; cited from earlier work"}, "[1]": {"tested_on": "hypoxia-inducible factor-1 transcription", "parameters": "method as in PMID 17256467", "details": "under hypoxic conditions; cited from earlier work"}, "rodent malaria": {"tested_on": "rodent malaria", "parameters": "method as in PMID 994322", "details": "cited from earlier work"}}}
{"smiles": "C[C@H]1[C@@H](O)O[C@@H]2O[C@@]3(C)CC[C@H]4[C@H](C)CC[C@@H]1[C@@]24OO3", "note": "[DHA, dihydroartemesinin, reference compound]", "values": [{"measurement": "EC50", "setting": "Plasmodium falciparum", "result": 0.02, "unit": "nM"}]}
{"smiles": "CC(C)[C@@H](N)C(=O)O[C@H](C)[C@@H]1C/C=C\\CC[C@H](O)C(C)(C)[C@@H]2CC[C@@H](C)[C@@]3(O2)O[B-]24O[C@@H](C(=O)O1)[C@]1(O[C@@H](CC[C@H]1C)C(C)(C)[C@H](O)CCC[C@@H]1C[C@H](OC(=O)[C@@H]3O2)[C@@H](C)O1)O4.[H+]", "note": "[boromycin]", "values": [{"measurement": "In vivo activity against poultry coccidiosis", "setting": "poultry coccidiosis", "result": "active in vivo"}]}
{"smiles": "C[C@@H]1C(=O)C[C@@H](O)CC/C=C\\C=C\\CC[C@H](C)OC(=O)[C@@H]2O[B-]34O[C@@H](C(=O)O[C@@H](C)CC/C=C\\C=C\\CC[C@H](O)CC(=O)[C@@H](C)[C@@H]5CC[C@@H](C)[C@]2(O5)O3)[C@@]2(O[C@H]1CC[C@H]2C)O4.[Na+]", "note": "[Tartrolon B]", "values": [{"measurement": "Activity against Gram positive bacteria", "setting": "Gram positive bacteria", "result": "activity against Gram positive"}, {"measurement": "Activity against Gram negative bacteria", "setting": "Gram negative bacteria", "result": "not Gram negative bacteria"}, {"measurement": "Activation of the NLRP3 inflammasome", "setting": "NLRP3 inflammasome", "result": "activate the NLRP3 inflammasome"}]}
{"smiles": "C[C@@H]1C(=O)C[C@@H](O)CC/C=C/C=C\\CC[C@H](C)OC(=O)[C@@H]2O[B-]34O[C@@H](C(=O)O[C@@H](C)CC/C=C\\C=C\\CC[C@H](O)CC(=O)[C@@H](C)[C@@H]5CC[C@](C)(O)[C@]2(O5)O3)[C@@]2(O[C@H]1CC[C@]2(C)O)O4", "note": "[Tartrolon C]", "values": [{"measurement": "Inhibition of hypoxia-inducible factor-1 transcription", "setting": "[1]", "result": "inhibit hypoxia-inducible factor-1 transcription"}]}
{"smiles": "C[C@@H]1C(=O)C[C@@H](O)CC/C=C/C=C\\CC[C@H](C)OC(=O)C(O)[C@]2(O)O[C@@H](CC[C@H]2C)[C@H](C)C(=O)C[C@@H](O)CC/C=C/C=C\\CC[C@H](C)OC(=O)C(O)[C@]2(O)O[C@H]1CC[C@H]2C", "note": "(stereo partly drawn) [Tartrolon A]", "values": [{"measurement": "Activity against Gram positive bacteria", "setting": "Gram positive bacteria", "result": "activity against Gram positive"}, {"measurement": "Activity against Gram negative bacteria", "setting": "Gram negative bacteria", "result": "not Gram negative bacteria"}]}
{"smiles": "C[C@@H]1CC[C@@H]2O[C@]13O[B-]14O[C@H]3C(=O)O[C@H]3C[C@@H](/C=C/C[C@@H](O)C(C)(C)[C@@H]5CC[C@@H](C)[C@](O5)(O1)[C@@H](O4)C(=O)O[C@H]1C[C@@H](/C=C/C[C@@H](O)C2(C)C)O[C@@H]1C)O[C@@H]3C.[Na+]", "note": "[aplasmomycin]", "values": [{"measurement": "In vivo activity against rodent malaria", "setting": "rodent malaria", "result": "active in vivo"}]}
